Experimental data published in US9605026B2, “Hydrogen-bond surrogate peptides and peptidomimetics for p53 reactivation” (New York University, priority 2013, dated 2017).

What was measured:
Assay type in all cases: cell-based, human
p53 [1] = assay: p53 transcriptional activity (Cignal p53 luciferase reporter) in UMSCC47 cells; conditions: 24 hours
Description: (§1) FIG. 5A is an schematic illustration showing that CH1 has two distinct target sites. HIF1-α/p300 structures were used as guides to design helix mimetics that target site A and site B on the CH1 domain of p300. […] CH1iA (SEQ ID NO: 7) and CH1iB (SEQ ID NO: 8) were designed to mimic two helices from the C-terminal domain of HIF-1α. The peptides were locked into the helical conformation by the hydrogen bond surrogate method. FIG. 5C is a graph of p53 activity. UMSCC47 (left) and UMSCC74A (right) cells were co-transfected with a p53 Firefly luciferase reporter plasmid and a control Renilla luciferase plasmid. After 24 hours, cells were treated with control (vehicle), CH1iA (10 μM), or CH1iB (10 μM) for 24 hours. Firefly luciferase activity was normalized to Renilla luciferase activity to control for transfection efficiency. Data is normalized to control and presented as mean±SEM. *P<0.05, n=3. FIG. 5D is a western blot showing total and acetylated p53 levels. UMSCC47 (left) and UMSCC74A (right) cells were treated with control (vehicle), CH1iA (10 μM), or CH1iB (10 μM) for 24 hours. Cell lysates were immunoblotted with anti-p53 or anti-acetylated[K382]-p53 antibody. FIG. 5E is a pair of graphs of p300, p53, p21, miR-34a, and miR-200c expression. UMSCC47 (top panel) and UMSCC74A (bottom panel) cells were treated with control (vehicle), CH1iA (10 μM), or CH1iB (10 μM) for 24 hours. mRNA expression was determined using qPCR with validated TaqMan assays. Data is normalized to control cells and presented as mean±SEM. *P<0.01, control vs. CH1iB, n=3. FIG. 5F is a western blot showing HPV16 E6-p300 association. UMSCC47 cells were treated with control (vehicle), CH1iA (10 μM), or CH1iB (10 μM) for 24 hours. Cell lysates were extracted, immunoprecipitated with anti-p300 antibody, and immunoblotted with anti-E6 antibody. Cell lysates were immunoblotted with anti-E6 or anti-p300 antibody for input control. FIG. 5G is a set of graphs of cell proliferation. UMSCC47 (top left panel), UMSCC74A (top right panel), and IMR90 (human normal fibroblasts) (bottom panel) cells were treated with control (vehicle), CH1iA (10 μM), CH1iB (10 μM), cis-platinum (10 μM), CH1iA (10 μM) and cis-platinum (10 μM), or CH1iB (10 μM) and cis-platinum (10 μM) for 24, 48, or 72 hours. Data is normalized to Day 0 and presented as mean±SEM. *P<0.01, control vs. CH1iB or cis-platinum, **P<0.01 CH1iB or cis-platinum vs. CH1iB and cis-platinum, n=6.
FIG. 6A is a western blot showing total and acetylated p53 levels. […] UMSCC47 cells were treated with control (vehicle), CH1iB (10 μM), cis-platinum (10 μM), or CH1iB (10 μM) and cis-platinum (10 μM) for 24 hours. mRNA expression was determined using qPCR with validated TaqMan assays. […]

p53 [2] = assay: Western blot of total and acetylated[K382] p53 in UMSCC47 cells; conditions: 24 hours; for acetylated p53 levels / p53 accumulation (total p53 level): UMSCC47, 10 μM
Description: as §1
FIG. 6A is a western blot showing total and acetylated p53 levels. UMSCC47 cells were treated with control (vehicle), CH1iB (10 μM), cis-platinum (10 μM), or CH1iB (10 μM) and cis-platinum (10 μM) for 24 hours. Cell lysates were immunoblotted with anti-p53 or anti-acetylated[K382]-p53 antibody. FIG. 6B is a graph of p53 transcriptional activity. UMSCC47 cells were co-transfected with a p53 Firefly luciferase reporter plasmid and a control Renilla luciferase plasmid. After 24 hours, cells were treated with control (vehicle), CH1iB (10 μM), cis-platinum (10 μM), or CH1iB (10 μM) and cis-platinum (10 μM) for 24 hours. Firefly luciferase activity was normalized to Renilla luciferase activity to control for transfection efficiency. Data is normalized to control and presented as mean±SEM. *P<0.01, control vs. CH1iB, cis-platinum or CH1iB+cis-platinum, **P<0.01 CH1iB or cis-platinum vs. CH1iB+cis-platinum, n=5. FIG. 6C is a graph of p300, p53, p21, miR-34a, and miR-200c expression. UMSCC47 cells were treated with control (vehicle), CH1iB (10 μM), cis-platinum (10 μM), or CH1iB (10 μM) and cis-platinum (10 μM) for 24 hours. mRNA expression was determined using qPCR with validated TaqMan assays. Data is normalized to control cells and presented as mean±SEM. *P<0.01, control vs. CH1iB, cis-platinum or CH1iB+cis-platinum, **P<0.01 CH1iB or cis-platinum vs. CH1iB+cis-platinum, n=3. FIG. 6D is a pair of graphs of apoptosis. […]

[3] = system: p300, p53, and p53-regulated genes; assay: qPCR expression of p300, p53, p21, miR-34a, miR-200c in UMSCC74A cells; conditions: 10 μM, 24 hours
Description: FIG. 5A is an schematic illustration showing that CH1 has two distinct target sites. HIF1-α/p300 structures were used as guides to design helix mimetics that target site A and site B on the CH1 domain of p300. […] CH1iA (SEQ ID NO: 7) and CH1iB (SEQ ID NO: 8) were designed to mimic two helices from the C-terminal domain of HIF-1α. The peptides were locked into the helical conformation by the hydrogen bond surrogate method. FIG. 5C is a graph of p53 activity. UMSCC47 (left) and UMSCC74A (right) cells were co-transfected with a p53 Firefly luciferase reporter plasmid and a control Renilla luciferase plasmid. After 24 hours, cells were treated with control (vehicle), CH1iA (10 μM), or CH1iB (10 μM) for 24 hours. […] UMSCC47 (top panel) and UMSCC74A (bottom panel) cells were treated with control (vehicle), CH1iA (10 μM), or CH1iB (10 μM) for 24 hours. mRNA expression was determined using qPCR with validated TaqMan assays. […]
Cells were extracted for total RNA using the TRIzol® reagent (Invitrogen) or TaqMan PreAmp Cells-to-CT kit (Applied Biosystems). Expression of p300, p53, p21, miR-34a and miR-200c were determined using the Applied Biosystems 7900HT Fast Real-Time PCR System with validated TaqMan gene expression assays (Applied Biosystems). p53, p300, and p21 expression were normalized to GADPH and miR-34a and miR-200c expression were normalized to RNU44 using the ΔΔCt method.

UMSCC47 cells = assay: Cell proliferation (MTT) in UMSCC47 cells; conditions: for cell proliferation, single-agent: UMSCC47, 10 μM, 24-72 hours
Description: as §1
FIG. 7A is a graph of p53 transcriptional activity. UMSCC47 cells were co-transfected with a p53 Firefly luciferase reporter plasmid and a control Renilla luciferase plasmid. After 24 hours, cells were treated with control (vehicle) or CH1iB-mut (10 μM) for 24 hours. Firefly luciferase activity was normalized to Renilla luciferase activity to control for transfection efficiency. Data is presented as mean±SEM. *P<0.05, n=5. FIG. 7B is a graph of cell proliferation. UMSCC47 cells were treated with control (vehicle), CH1iB-mut (10 μM), cis-platinum (10 μM), or CH1iB-mut (10 μM) and cis-platinum (10 μM) for 24 or 48 hours. Data is normalized to Day 0 and presented as mean±SEM. *P<0.01, control or CH1iB-mut vs. cis-platinum or cis-platinum+CH1iB-mut, n=6.
Cell proliferation was assessed using the MTT reagent (Roche Molecular Biochemicals, Nutley, N.J.) to detect metabolic active cells. Absorbance was measured at 570 nm in the Spectra Max 190 ELISA reader (Molecular Devices, Sunnyvale, Calif.) after overnight incubation. […]

[4] = UMSCC47, CH1iB 10 μM with cis-platinum 10 μM

Substance | p53 activity increase (p53 [1]; UMSCC47 (HPV-positive), 10 μM, vs control (vehicle)) [%] | effect of cis-platinum on p53 activity (p53 [1]; [4]) | acetylated p53 levels (p53 [2]) | p53 accumulation (total p53 level) (p53 [2]) | effect of cis-platinum on p53 accumulation (p53 [2]; [4]) | effect of cis-platinum on p53 acetylation (p53 [2]; [4]) | Expression of p300, p53, and p53-regulated genes [3] | effect on anti-proliferative efficacy of cis-platinum (combination) (UMSCC47 cells; UMSCC47, 10 μM with cis-platinum 10 μM) | cell proliferation, single-agent (UMSCC47 cells) | p53 activity, effect in words (p53 [1]; UMSCC47 (HPV-positive), 10 μM)
XELA*RALDQ-NH2 (ELXRALDQ; HBS: 4-pentenoic acid, N-allylalanine; C-terminal amide; CH1iB) [X 4-pentenoic acid, A* N-allylalanine] | 71 | potentiated | enhanced | enhanced | potentiated | potentiated | unchanged | potentiated | inhibited | –
XTAA*DCEYNAR (TAXDCEYNAR; HBS: 4-pentenoic acid, N-allylalanine; CH1iA) [X 4-pentenoic acid, A* N-allylalanine, reference compound] | – | – | no effect | no effect | – | – | unchanged | – | inactive | no effect
